According to patent US9526795B2, “N-BOC-dendrimers and their conjugates” (Annam Biosciences, LLC, priority 2012, dated 2016):

Test system: ovarian cancer cell lines
Test: doxorubicin-dendrimer-folate uptake in ovarian cancer cells
Assay type: cell-based
Settings: FIG. 8; compared with doxorubicin and doxorubicin-(folate)1; folate-quenching correction
Description: Ovarian cancer cells were purchased from ATCC (CRL-6322, ATCC American Type Culture Collection, Rockville, Md.) and were grown in Dulbecco's modified Eagle's medium (DMEM) with 10% fetal bovine serum and 100 units/mL penicillin. The cells were grown at 37° C. in 5% CO2 environment. The culture medium was removed and discarded. The cells were rinsed with Dulbecco Phosphate Buffer Solution (DPBS), Trypsin-ethylenediaminetetra-acetic acid (EDTA) solution (0.5 ml) was added, and the cells were observed under an inverted microscope to make sure that they were dispersed. Complete growth medium (6.0 to 8.0 ml) was added, and the cells were aspirated by gently pipetting. The cell suspension in appropriate aliquots was transferred to new culture plates. The cells were allowed to grow at 37° C. in 5% CO2 for 24 hours before further experiments. […]
The evaluation of doxorubicin-dendrimer-folate uptake is conducted by using a literature procedure (Kim D, Lee E S, Oh K T, Gao Z G, Bae Y H. Doxorubicin-loaded polymeric micelle overcomes multidrug resistance of cancer by double-targeting folate receptor and early endosomal pH. Small. 2008 November; 4(11):2043-50) and folate-quenching correction was adjusted based on a literature procedure (Husseini G. A., 2012. Folic Acid Quenches Doxorubicin Fluorescence. Advanced Science Letters. 7:726).

## COc1cccc2c1C(=O)c1c(O)c3c(c(O)c1C2=O)C[C@@](O)(/C(CO)=N/NC(=O)CCCC(=O)NCCCOCCOCCOCCCN(CCC(=O)NCCNC(=O)CCC(NC(=O)c1ccc(NCc2cnc4c(=O)[nH]c(N)nc4n2)cc1)C(=O)O)CCC(=O)NCCNC(=O)CCC(NC(=O)c1ccc(NCc2cnc4c(=O)[nH]c(N)nc4n2)cc1)C(=O)O)C[C@H]3O[C@H]1C[C@@H](N)[C@@H](O)[C@@H](C)O1 (stereo partly shown) [doxorubicin-dendrimer-(folate)2, doxorubicin-hydrazine-glutaric acid-PEG3-dendrimer-2-folates]
  uptake by ovarian cancer cell lines: superior uptake
